How the values were obtained:
[1] = tested on: spring oilseed rape homozygous for HETO108 and HETO121; experiment: Herbicide tolerance in the field, visible phytotoxicity; format: in vivo, Brassica napus
Source text: (§1) Seeds of spring oilseed rape homozygous for HETO108 and HETO121 were sown in a field according to typical practical agricultural methods. The registered spring oilseed rape variety ABILITY served as a comparison. All plants were cultivated up to BBCH stage 14 (four true leaves of the oilseed rape plants). Afterwards, the herbicides mentioned in table 2 have been applied to the oilseed rape plants by using specific spray equipment for small plot applications. The water amount used was 200 L/ha.

[2] = tested on: spring oilseed rape variety ABILITY; experiment: as above; format: in vivo, Brassica napus
Source text: as §1

[3] = molecular target: T1, Arabidopsis thaliana P197S-mutant ALS (Arabidopsis thaliana, UniProt P17597, E575Q/P197S); experiment: biochemical; settings: for Resistance Factor P197S: relative to WT, from measured pI50; for IC50: read-out: pI50 P197S (converted)
T1 construct: vector-encoded N-terminal fusion of pET-32a(+) (Trx/His/S tag by own knowledge); made in house; host or cells: Escherichia coli AD494
Description: (§2) Bacteria were grown at 37° C. in LB-medium containing 100 mg/1 carbenicillin and 25 mg/1 canamycin, induced with 1 mM isopropyl-β-D-thiogalactopyranoside at an OD600 of 0.6, cultivated for 16 hours at 18° C. and harvested by centrifugation. Bacterial pellets were resusupended in 100 mM sodium phosphate buffer pH 7.0 containing 0.1 mM thiamine-pyrophosphate, 1 mM MgCl2, and 1 μM FAD at a concentration of 1 gram wet weight per 25 ml of buffer and disrupted by sonification. The crude protein extract obtained after centrifugation was used for ALS activity measurements.
(§3) Assays were initiated by adding enzyme and terminated after 75 min incubation at 30° C. by the addition to 40 μl 0.5 M H2SO4. […] Reaction velocities were tiffed to the Michalis-Menten equation with the XLFit curve fitting program.

[4] = molecular target: T2, Arabidopsis thaliana S653N-mutant ALS (Arabidopsis thaliana, UniProt P17597, E575Q/S653N); experiment: biochemical; settings: for Resistance Factor S653N: relative to WT, from measured pI50; for IC50: read-out: pI50 S653N (converted)
T2 construct: vector-encoded N-terminal fusion of pET-32a(+) (Trx/His/S tag by own knowledge); made in house; host or cells: Escherichia coli AD494
Description: as §2, §3

[5] = molecular target: T3, Arabidopsis thaliana W574L-mutant ALS (Arabidopsis thaliana, UniProt P17597, E575Q/W574L); experiment: biochemical; settings: for Resistance Factor W574L: relative to WT, from measured pI50; for IC50: read-out: pI50 W574L (converted)
T3 construct: vector-encoded N-terminal fusion of pET-32a(+) (Trx/His/S tag by own knowledge); made in house; host or cells: Escherichia coli AD494
Description: as §2, §3

[6] = molecular target: T4, mixture of P197S and W574L ALS enzymes (Arabidopsis thaliana, UniProt P17597); format: biochemical; settings: for Resistance Factor P197S & W574L: relative to WT, calculated; for pI50 P197S & W574L: calculated for a mixture of equal activities of the two enzymes, pI50=3.0 used where measured <4
T4 construct: crude E. coli extract was used
Description: as §3
(§4) To characterize the response of a mixture of two different ALS enzymes to a given ALS inhibitor the following assumptions were made: • a inhibition is competitive and reversible • b. in the absence of inhibitor, equal activities of the ALS (mutant) enzymes 1 and 2 are present
(§5) Using experimentally determined pI50-values for various ALS-inhibiting herbicides, enzyme activities at different inhibitor concentrations were calculated (see Theory) for each ALS enzyme. Total ALS activity at any given inhibitor concentration is the sum of the activity of (mutant) enzyme 1 and (mutant) enzyme 2. If the experimentally determined pI50-value was <4, pI50=3.0 was used for the calculations. If the calculated pI50-value was 3.0, the pI50 was redefined as <4.

[7] = molecular target: T5, mixture of S653N and W574L ALS enzymes (Arabidopsis thaliana, UniProt P17597); format: biochemical; settings: for Resistance Factor S653N & W574L: relative to WT, calculated; for pI50 S653N & W574L: calculated for a mixture of equal activities of the two enzymes, pI50=3.0 used where measured <4
T5 construct: crude E. coli extract was used
Description: as §3, §4, §5

[8] = molecular target: T6, Arabidopsis thaliana wild-type ALS (Arabidopsis thaliana, UniProt P17597, E575Q); experiment: biochemical; settings: measured, crude extract of E. coli expressed enzyme; for IC50: read-out: pI50 WT (converted)
T6 construct: vector-encoded N-terminal fusion of pET-32a(+) (Trx/His/S tag by own knowledge); made in house; host or cells: Escherichia coli AD494
Description: as §2, §3

[9] = measured, crude extract of E. coli expressed enzyme
[10] = Brassica napus, topical, 432 h, read-out: % phytotox

Compound	Resistance Factor P197S [3]	Resistance Factor S653N [4]	Resistance Factor W574L [5]	Resistance Factor P197S & W574L [6]	Resistance Factor S653N & W574L [7]	pI50 P197S & W574L [6]	pI50 S653N & W574L [7]	other results
COC(=O)c1ccc(CNS(C)(=O)=O)cc1S(=O)(=O)NC(=O)Nc1nc(OC)cc(OC)n1 [Mesosulfaron-methyl, mesosulfuron-methyl]	79	16	31623	794	200	–	–	% phytotox ([1]; HETO108-HETO121, AI dose rate 15 gai/ha, field, 18 days after application, 0%=no phytotoxic effects, 100%=all plants killed): 30%; % phytotox ([2]; ABILITY, AI dose rate 15 gai/ha, field, 18 days after application, 0%=no phytotoxic effects, 100%=all plants killed): 99%
COc1cc(OC)nc(NC(=O)NS(=O)(=O)N(C)S(C)(=O)=O)n1 [Amidosulfuron, amidosulfuron]	>501	0	>501	>501	13	<4	5.6	pest or weed control at 30 g/ha ([1]; Brassica napus, topical, 432 h, HETO108-HETO121, AI dose rate 30 gai/ha, field, 18 days after application, 0%=no phytotoxic effects, 100%=all plants killed, read-out: % phytotox): 3%; pest or weed control at 30 g/ha ([2]; Brassica napus, topical, 432 h, ABILITY, AI dose rate 30 gai/ha, field, 18 days after application, 0%=no phytotoxic effects, 100%=all plants killed, read-out: % phytotox): 98%; IC50 [3, 9]: > 100000 nM; IC50 [4, 9]: 7.94 nM; IC50 [5, 9]: > 100000 nM; IC50 [8]: 200 nM
COCc1cnc(C2=NC(C)(C(C)C)C(=O)N2)c(C(=O)O)c1 (stereo not shown) [Imazamox, imazamox]	1	>25	>25	20	>25	4.1	<4	pest or weed control at 40 g/ha ([1]; Brassica napus, topical, 432 h, HETO108-HETO121, AI dose rate 40 gai/ha, field, 18 days after application, 0%=no phytotoxic effects, 100%=all plants killed, read-out: % phytotox): 19%; pest or weed control at 40 g/ha ([2]; Brassica napus, topical, 432 h, ABILITY, AI dose rate 40 gai/ha, field, 18 days after application, 0%=no phytotoxic effects, 100%=all plants killed, read-out: % phytotox): 99%; IC50 [3, 9]: 5010 nM; IC50 [4, 9]: > 100000 nM; IC50 [5, 9]: > 100000 nM; IC50 [8]: 3980 nM
COc1cc(OC)nc(Oc2cccc(Oc3nc(OC)cc(OC)n3)c2C(=O)O)n1 [Bispyribac-sodium, bispyribac-sodium]	4	13	398	40	79	6.1	5.8	pest or weed control at 50 g/ha ([1]; Brassica napus, topical, 432 h, HETO108-HETO121, AI dose rate 50 gai/ha, field, 18 days after application, 0%=no phytotoxic effects, 100%=all plants killed, read-out: % phytotox): 75%; pest or weed control at 50 g/ha ([2]; Brassica napus, topical, 432 h, ABILITY, AI dose rate 50 gai/ha, field, 18 days after application, 0%=no phytotoxic effects, 100%=all plants killed, read-out: % phytotox): 100%; IC50 [3, 9]: 79.4 nM; IC50 [4, 9]: 251 nM; IC50 [5, 9]: 7940 nM; IC50 [8]: 20 nM
COc1ncc(F)c2nc(S(=O)(=O)Nc3c(F)cccc3F)nn12 [Florasulam, florasulam]	25	8	1585	200	126	5.5	5.7	% phytotox ([1]; HETO108-HETO121, AI dose rate 10 gai/ha, field, 18 days after application, 0%=no phytotoxic effects, 100%=all plants killed): 70%; % phytotox ([2]; ABILITY, AI dose rate 10 gai/ha, field, 18 days after application, 0%=no phytotoxic effects, 100%=all plants killed): 100%; pI50 P197S [3, 9]: 6.4; pI50 S653N [4, 9]: 6.9; pI50 W574L [5, 9]: 4.6; pI50 WT [8]: 7.8
COC(=O)c1ccccc1S(=O)(=O)NC(=O)Nc1nc(C)nc(OC)n1 [Metsulfuron-methyl, metsulfuron-methyl]	50	6	1000	251	79	–	–	% phytotox ([1]; HETO108-HETO121, AI dose rate 8 gai/ha, field, 18 days after application, 0%=no phytotoxic effects, 100%=all plants killed): 73%; % phytotox ([2]; ABILITY, AI dose rate 8 gai/ha, field, 18 days after application, 0%=no phytotoxic effects, 100%=all plants killed): 100%
COC(=O)c1ccccc1S(=O)(=O)NC(=O)N(C)c1nc(C)nc(OC)n1 [Tribenuron-methyl, tribenuron-methyl]	–	–	–	–	–	–	–	pest or weed control at 20 g/ha ([1]; Brassica napus, topical, 432 h, HETO108-HETO121, AI dose rate 20 gai/ha, field, 18 days after application, 0%=no phytotoxic effects, 100%=all plants killed, read-out: % phytotox): 5%; pest or weed control at 20 g/ha ([2]; Brassica napus, topical, 432 h, ABILITY, AI dose rate 20 gai/ha, field, 18 days after application, 0%=no phytotoxic effects, 100%=all plants killed, read-out: % phytotox): 99%
COC(=O)c1ccc(C(F)(F)F)nc1S(=O)(=O)NC(=O)Nc1nc(OC)cc(OC)n1 [Flupyrsulfuron-methyl, flupyrsulfuron-methyl-sodium]	–	–	–	–	–	–	–	pest or weed control at 10 g/ha [1, 10]: 35%; pest or weed control at 10 g/ha [2, 10]: 100%
CCCOc1nn(C(=O)[N-]S(=O)(=O)c2ccccc2C(=O)OC)c(=O)n1C.[Na+] [Propoxycarbazone, propoxycarbazone-sodium]	158	25	316	200	100	–	–	% phytotox ([1]; HETO108-HETO121, AI dose rate 70 gai/ha, field, 18 days after application, 0%=no phytotoxic effects, 100%=all plants killed): 65%; % phytotox ([2]; ABILITY, AI dose rate 70 gai/ha, field, 18 days after application, 0%=no phytotoxic effects, 100%=all plants killed): 100%
iodosulfuron-methyl-sodium [Iodosulfuron-methy-sodium]	158	10	631	–	79	–	–	% phytotox ([1]; HETO108-HETO121, AI dose rate 7 gai/ha, field, 18 days after application, 0%=no phytotoxic effects, 100%=all plants killed): 43%; % phytotox ([2]; ABILITY, AI dose rate 7 gai/ha, field, 18 days after application, 0%=no phytotoxic effects, 100%=all plants killed): 100%
CCOc1ccccc1OS(=O)(=O)NC(=O)Nc1nc(OC)cc(OC)n1 [Ethoxysulfuron, ethoxysulfuron]	–	–	–	–	–	–	–	pest or weed control at 180 g/ha ([1]; Brassica napus, topical, 432 h, HETO108-HETO121, AI dose rate 180 gai/ha, field, 18 days after application, 0%=no phytotoxic effects, 100%=all plants killed, read-out: % phytotox): 70%; pest or weed control at 180 g/ha ([2]; Brassica napus, topical, 432 h, ABILITY, AI dose rate 180 gai/ha, field, 18 days after application, 0%=no phytotoxic effects, 100%=all plants killed, read-out: % phytotox): 100%
